The values below are quoted from earlier work in article PMC8617944, “Preclinical Pharmacokinetics and Acute Toxicity in Rats of 5-{[(2E)-3-Bromo-3-carboxyprop-2-enoyl]amino}-2-hydroxybenzoic Acid: A Novel 5-Aminosalicylic Acid Derivative with Potent Anti-Inflammatory Activity” (Molecules, 2021).

Structures are written as SMILES.

Details of series [1]: method as in ref 32, 33 = [32]; doi:10.1016/j.arabjc.2016.12.026; 32. Cabrera Pérez L.C. Gutiérrez Sánchez M. Mendieta Wejebe J.E. Hernández Rodríguez M. Fragoso Vázquez M.J. Salazar J.R. Correa Basurto J. Padilla Martínez I.I. Rosales Hernández M.C. Novel 5-aminosa || [33]; 33. Correa Basurto J. Rosales Hernández M.C. Mendieta Wejebe J.E. Trujillo Ferrara J.G. Padilla Martínez I.I. Ramírez Durán L.A. Alemán González Duhart D. Síntesis de un derivado del ácido 5-aminosali. The note with it: 0.408 mM; cited from earlier work.

Another series has as its system rats. Particulars: rat, in vivo, po; cited from earlier work.

For `Nc1ccc(O)c(C(=O)O)c1` [Compound 5-ASA, 5-aminosalicylic acid], the “reduction of the free radical DPPH” value in series [1] is “about 85%”. The LD50 in the series with rats is listed as 2800 mg/kg.
